Laboratory results from the NIST ThermoML archive (doi:10.1016/j.jct.2017.01.011).
Numbers after ± are expanded uncertainties.

Test: xn = mol fraction of the nth substance listed
Details: 100 kPa, Liquid; for speed of sound: Frequency=3 MHz, Single path-length method; for mass density: Vibrating tube method

OCC(O)CO [glycerol] + CCO
Details | mass density, 283.15 K [kg/m3] | mass density, 293.15 K [kg/m3] | mass density, 303.15 K [kg/m3] | mass density, 313.15 K [kg/m3] | speed of sound, 283.15 K [m/s] | speed of sound, 293.15 K [m/s] | speed of sound, 303.15 K [m/s] | speed of sound, 313.15 K [m/s]
x2 = 0 | 1267 ± 1 | 1261 ± 1 | 1255 ± 1 | 1248 ± 1 | 1942.3 ± 4.1 | 1922.9 ± 4.1 | 1901 ± 4.1 | 1879.3 ± 4.1
x2 = 0.0999 | 1233 ± 1 | 1227 ± 1 | 1220 ± 1 | 1214 ± 1 | 1882.1 ± 4.2 | 1852.5 ± 4.2 | 1827.9 ± 4.2 | 1804.6 ± 4.2
x2 = 0.2002 | 1199 ± 1 | 1193 ± 1 | 1186 ± 1 | 1179 ± 1 | 1804.3 ± 4.2 | 1778.9 ± 4.2 | 1753.4 ± 4.2 | 1729.7 ± 4.2
x2 = 0.2998 | 1161 ± 1 | 1155 ± 1 | 1148 ± 1 | 1140 ± 1 | 1721.8 ± 4.2 | 1696.1 ± 4.2 | 1671.4 ± 4.2 | 1647.2 ± 4.2
x2 = 0.4001 | 1120 ± 1 | 1113 ± 1 | 1106 ± 1 | 1099 ± 1 | 1639.2 ± 4.2 | 1613.3 ± 4.2 | 1587.9 ± 4.2 | 1562.8 ± 4.2
x2 = 0.4993 | 1077 ± 1 | 1069 ± 1 | 1062 ± 1 | 1055 ± 1 | 1557.7 ± 4.2 | 1530.9 ± 4.2 | 1504.6 ± 4.2 | 1478.5 ± 4.2
x2 = 0.6004 | 1029 ± 1 | 1021 ± 1 | 1014 ± 1 | 1006 ± 1 | 1476.1 ± 4.2 | 1448.4 ± 4.2 | 1421.1 ± 4.2 | 1394 ± 4.2
x2 = 0.699 | 978 ± 1 | 970 ± 1 | 963 ± 1 | 955 ± 1 | 1401.7 ± 4.2 | 1372.8 ± 4.2 | 1344.2 ± 4.2 | 1315.8 ± 4.2
x2 = 0.9002 | 862 ± 1 | 854 ± 1 | 845 ± 1 | 837 ± 1 | 1263.5 ± 4.2 | 1231.4 ± 4.2 | 1199.4 ± 4.2 | 1167.7 ± 4.2

OCC(O)CO [glycerol] + CO
Details | mass density, 283.15 K [kg/m3] | mass density, 293.15 K [kg/m3] | mass density, 303.15 K [kg/m3] | mass density, 313.15 K [kg/m3] | speed of sound, 283.15 K [m/s] | speed of sound, 293.15 K [m/s] | speed of sound, 303.15 K [m/s] | speed of sound, 313.15 K [m/s]
x2 = 0 | 1267 ± 1 | 1261 ± 1 | 1255 ± 1 | 1248 ± 1 | 1942.3 ± 4.1 | 1922.9 ± 4.1 | 1901 ± 4.1 | 1879.3 ± 4.1
x2 = 0.1003 | 1244 ± 1 | 1238 ± 1 | 1232 ± 1 | 1225 ± 1 | 1901.8 ± 4.2 | 1873 ± 4.2 | 1848.8 ± 4.2 | 1826.1 ± 4.2
x2 = 0.1997 | 1220 ± 1 | 1213 ± 1 | 1207 ± 1 | 1200 ± 1 | 1841.5 ± 4.2 | 1816.1 ± 4.2 | 1792.7 ± 4.2 | 1770 ± 4.2
x2 = 0.3002 | 1192 ± 1 | 1186 ± 1 | 1179 ± 1 | 1172 ± 1 | 1779.2 ± 4.2 | 1755.3 ± 4.2 | 1732.3 ± 4.2 | 1709.5 ± 4.2
x2 = 0.4011 | 1158 ± 1 | 1152 ± 1 | 1145 ± 1 | 1138 ± 1 | 1708.9 ± 4.2 | 1684.6 ± 4.2 | 1660.7 ± 4.2 | 1637.1 ± 4.2
x2 = 0.4999 | 1119 ± 1 | 1112 ± 1 | 1105 ± 1 | 1098 ± 1 | 1628.4 ± 4.2 | 1604 ± 4.2 | 1579.6 ± 4.2 | 1555.3 ± 4.2
x2 = 0.5998 | 1075 ± 1 | 1068 ± 1 | 1060 ± 1 | 1053 ± 1 | 1546.5 ± 4.2 | 1521.1 ± 4.2 | 1495.6 ± 4.2 | 1470.4 ± 4.2
x2 = 0.7 | 1024 ± 1 | 1016 ± 1 | 1009 ± 1 | 1001 ± 1 | 1457.7 ± 4.2 | 1430.9 ± 4.2 | 1404.2 ± 4.2 | 1377.6 ± 4.2
x2 = 0.8002 | 964 ± 1 | 956 ± 1 | 947 ± 1 | 939 ± 1 | 1364.5 ± 4.2 | 1336.1 ± 4.2 | 1307.8 ± 4.2 | 1279.7 ± 4.2
x2 = 0.8999 | 892 ± 1 | 883 ± 1 | 874 ± 1 | 865 ± 1 | 1265.5 ± 4.2 | 1234.9 ± 4.2 | 1204.5 ± 4.2 | 1174.5 ± 4.2

OCC(O)CO [glycerol] + O
Details | mass density, 283.15 K [kg/m3] | mass density, 293.15 K [kg/m3] | mass density, 303.15 K [kg/m3] | mass density, 313.15 K [kg/m3] | speed of sound, 283.15 K [m/s] | speed of sound, 293.15 K [m/s] | speed of sound, 303.15 K [m/s] | speed of sound, 313.15 K [m/s]
x2 = 0 | 1267 ± 1 | 1261 ± 1 | 1255 ± 1 | 1248 ± 1 | 1942.3 ± 6.1 | 1922.9 ± 6.1 | 1901 ± 6.1 | 1879.3 ± 6.1
x2 = 0.1003 | 1261 ± 1 | 1255 ± 1 | 1249 ± 1 | 1243 ± 1 | 1951.7 ± 6.1 | 1922 ± 6.1 | 1897.9 ± 6.1 | 1875.7 ± 6.1
x2 = 0.1998 | 1254 ± 1 | 1248 ± 1 | 1242 ± 1 | 1236 ± 1 | 1940.9 ± 6.1 | 1915.6 ± 6.1 | 1893.3 ± 6.1 | 1871.9 ± 6.1
x2 = 0.3014 | 1246 ± 1 | 1240 ± 1 | 1234 ± 1 | 1228 ± 1 | 1931.5 ± 6.1 | 1909 ± 6.1 | 1888 ± 6.1 | 1867.3 ± 6.1
x2 = 0.4042 | 1236 ± 1 | 1230 ± 1 | 1224 ± 1 | 1218 ± 1 | 1919.2 ± 6 | 1899.3 ± 6 | 1879.7 ± 6 | 1859.8 ± 6
x2 = 0.5011 | 1224 ± 1 | 1218 ± 1 | 1212 ± 1 | 1205 ± 1 | 1903.7 ± 6 | 1886 ± 6 | 1867.9 ± 6 | 1849.3 ± 6
x2 = 0.6011 | 1206 ± 1 | 1201 ± 1 | 1194 ± 1 | 1188 ± 1 | 1879.7 ± 6 | 1864.7 ± 6 | 1848.8 ± 6 | 1832 ± 6
x2 = 0.7003 | 1183 ± 1 | 1177 ± 1 | 1172 ± 1 | 1166 ± 1 | 1841.6 ± 6 | 1830.6 ± 6 | 1818.2 ± 6 | 1804.5 ± 6
x2 = 0.7999 | 1148 ± 1 | 1143 ± 1 | 1137 ± 1 | 1131 ± 1 | 1772.9 ± 6 | 1769.3 ± 6 | 1763.5 ± 6 | 1755.4 ± 6
x2 = 0.9024 | 1091 ± 1 | 1087 ± 1 | 1083 ± 1 | 1078 ± 1 | 1648.7 ± 6.1 | 1659.3 ± 6.1 | 1665.8 ± 6 | 1668.4 ± 6
